Experimental data reported in ChEMBL document CHEMBL4229475, “Synthesis of novel imidazopyridines and their biological evaluation as potent anticancer agents: A promising candidate for glioblastoma” (Bioorg Med Chem Lett, 2018).
pIC50: −log10 of the molar value. Active and inactive are the calls of the source. The calls are words filed in the database; no cut-off is given here.

Legend:
LN-405 [1] = assay: Cytotoxicity against human LN405 cells assessed as decrease in cell viability at 100 uM after 96 hrs by MTT assay; type: functional, cell-based
LN-405 [2] = assay: Cytotoxicity against human LN405 cells assessed as decrease in cell viability after 96 hrs by MTT assay; type: functional, cell-based; conditions: LN-405, 96 h
LN-405 [3] = assay: Cell cycle arrest in human LN405 cells assessed as decrease in cell levels at S phase at IC50 after 72 hrs by propidium iodide staining-based flow cytometric method; type: functional
[4] = Cytotoxicity against human WS1 cells assessed as decrease in cell viability after 96 hrs by MTT assay; type: cell-based; conditions: WS1, 96 h
LN-405 [5] = assay: Cell cycle arrest in human LN405 cells assessed as accumulation at G0/G1 phase at IC50 after 72 hrs by propidium iodide staining-based flow cytometric method relative to control; type: functional
LN-405 [6] = assay: Induction of DNA damage in human LN405 cells assessed as cell with damage DNA at IC50 after 72 hrs by COMET assay (reference value: 0.7%); type: functional
LN-405 [7] = assay: Cytotoxicity against human LN405 cells assessed as cell viability at 100 uM after 96 hrs by MTT assay relative to control; type: functional; conditions: LN-405, 96 h, read-out: Activity

## CC1CCN(c2cc(-c3cccs3)c3nc(-c4cccs4)cn3c2)CC1
LN-405 [1]
  Activity: inactive

## CC1CCN(c2cc(-c3ccc(Br)s3)c3nc(-c4ccc(Br)s4)cn3c2)CC1
LN-405 [1]
  Activity: inactive

## CC1CCN(c2cc(-c3ccc4ccccc4c3)c3nc(-c4ccc5ccccc5c4)cn3c2)CC1
LN-405 [1]
  Activity: inactive

## CC1CCN(c2cc(-c3ccc(Br)cc3)c3nc(-c4ccc(Br)cc4)cn3c2)CC1
LN-405 [1]
  Activity: inactive

## CC1CCN(c2cc(-c3ccc(-c4ccccc4)cc3)c3nc(-c4ccc(-c5ccccc5)cc4)cn3c2)CC1
LN-405 [1]
  Activity: inactive

## CC1CCN(c2cc(-c3ccc(F)cc3)c3nc(-c4ccc(F)cc4)cn3c2)CC1
LN-405 [2]
  pIC50: 4.12
LN-405 [3]
  Activity: Active
[4]
  pIC50: 3.07
LN-405 [5]
  Activity: 98.2%
LN-405 [6]
  Activity: 0.9%
LN-405 [7]
  viability at 100 µM: 32%

## CC1CCN(c2cc(-c3ccccc3)c3nc(-c4ccccc4)cn3c2)CC1
LN-405 [2]
  pIC50: 5.00
LN-405 [3]
  Activity: Active
[4]
  pIC50: 3.32
LN-405 [5]
  Activity: 99.2%
LN-405 [6]
  Activity: 14%
LN-405 [7]
  viability at 100 µM: 6%

## COc1ccc(-c2cn3cc(N4CCC(C)CC4)cc(-c4ccc(OC)cc4)c3n2)cc1
LN-405 [7]
  viability at 100 µM: 80%
